Reference: article PMC10600247, “Impact of C- and N-terminal protection on the stability, metal chelation and antimicrobial properties of calcitermin” (Scientific Reports, 2023)
Residues, ends and D or L forms follow the SMILES beside them.

Columns and labels:
[1] = in vitro; conditions: human, pH 7.4
Experimental: Each peptide (C = 1·10^–4 M) and metal complex (metal:ligand ratio 1:1) was incubated in a sample containing 1 ml of human plasma (obtained as a pool of 40 individuals from the University Hospital of Ferrara) and 1 ml of ammonium acetate buffer (pH 7.4) at 37 °C. L-phenylalaninol is added as internal standard. At regular time intervals, 200 μl aliquots were taken and enzymatic reaction was blocked by adding 300 μl of HClO4 0.5 M. The sample was then centrifugated for 6 min at 14,000 × g. The supernatant was then filtered and analysed by HPLC. The analytical column was an Agilent Poroshell 120 SB-C18 (4.6 × 100 mm, 2.7 μm, pore size 120 Å). Flow rate = 0.5 ml/min, mobile phase H2O + 0.1% v/v TFA, linear gradient from 0 to 60% of acetonitrile + 0.1% v/v TFA over 30 min for the elution of peptides, temperature 25 °C, detection wavelength 210 nm. […] Informed consent was obtained from all subjects and/or their legal guardian(s) prior to the donation of blood samples. All experimental protocols were approved by the National Research and Research Transversal Processes boards at University of Ferrara. All methods were carried out in accordance with relevant guidelines and regulations.

[2] = test system: C. albicans (ATCC 10231); assay: In vitro antifungal CFU assay; assay type: cell-based, Candida albicans; conditions: pH 5.4; for mean CFU number ± S.D.: per 0.1 mL
In short: (§1)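 Peptides (final 0.128, 0.064, 0.032 mg/mL), alone or with ZnCl2 or CuCl2 at M:L 0.9:1, were incubated with 10^3 CFU/well in PBS pH 5.4 plus 1.5% TSB at 37 °C with slow rocking for 3 and 24 h. Aliquots were plated on TSA and CFU counted after 24 h; triplicate.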

[3] = test system: E. coli (ATCC 25922); assay: In vitro anti-E. coli CFU assay; assay type: cell-based, Escherichia coli; conditions: pH 5.4; for mean CFU number ± S.D.: per 0.1 mL
In short: as §1

[4] = peptide 0.032 mg/mL + CuCl2 (0.9:1), 3 h
[5] = peptide 0.032 mg/mL + CuCl2 (0.9:1), 24 h
[6] = peptide 0.032 mg/mL + ZnCl2 (0.9:1), 3 h
[7] = peptide 0.032 mg/mL + ZnCl2 (0.9:1), 24 h
[8] = peptide 0.064 mg/mL + CuCl2 (0.9:1), 3 h
[9] = peptide 0.064 mg/mL + CuCl2 (0.9:1), 24 h
[10] = peptide 0.064 mg/mL + ZnCl2 (0.9:1), 3 h
[11] = peptide 0.064 mg/mL + ZnCl2 (0.9:1), 24 h
[12] = peptide 0.128 mg/mL + CuCl2 (0.9:1), 3 h
[13] = peptide 0.128 mg/mL + CuCl2 (0.9:1), 24 h
[14] = peptide 0.128 mg/mL + ZnCl2 (0.9:1), 3 h
[15] = peptide 0.128 mg/mL + ZnCl2 (0.9:1), 24 h
[16] = peptide alone 0.032 mg/mL, 24 h
[17] = peptide alone 0.064 mg/mL, 24 h
[18] = peptide alone 0.128 mg/mL, 24 h

CC[C@H](C)[C@H](NC(=O)[C@H](C)NC(=O)[C@@H](NC(C)=O)C(C)C)C(=O)N[C@@H](C)C(=O)N[C@@H](CC(C)C)C(=O)N[C@@H](CCCCN)C(=O)N[C@@H](C)C(=O)N[C@@H](C)C(=O)N[C@@H](Cc1c[nH]cn1)C(=O)N[C@@H](Cc1ccc(O)cc1)C(=O)N[C@@H](Cc1c[nH]cn1)C(=O)N[C@H](C(=O)N[C@@H](Cc1c[nH]cn1)C(=O)N[C@@H](CCCCN)C(=O)N[C@@H](CCC(=O)O)C(N)=O)[C@@H](C)O [L2, Ac-VAIALKAAHYHTHKE-NH2] (Ac-VAIALKAAHYHTHKE-NH2)
half-life [1]: ~1.13 h
CFU decrease/increase with respect to untreated controls [2, 4]: +9.3%
mean CFU number ± S.D. [2, 4]: 153 ± 26 CFU
CFU decrease/increase with respect to untreated controls [2, 5]: +16%
mean CFU number ± S.D. [2, 5]: 1,908 ± 83 CFU
CFU decrease/increase with respect to untreated controls [2, 6]: -7.8%
mean CFU number ± S.D. [2, 6]: 129 ± 17 CFU
CFU decrease/increase with respect to untreated controls [2, 7]: +14%
mean CFU number ± S.D. [2, 7]: 1,873 ± 83 CFU
CFU decrease/increase with respect to untreated controls [2, 8]: +29%
mean CFU number ± S.D. [2, 8]: 180 ± 81 CFU
mean CFU number ± S.D. [2, 9]: 1,360 ± 140 CFU
CFU decrease/increase with respect to untreated controls [2, 10]: -44%
mean CFU number ± S.D. [2, 10]: 79 ± 18 CFU
mean CFU number ± S.D. [2, 11]: 881 ± 99 CFU
CFU decrease/increase with respect to untreated controls [2, 12]: -7%
mean CFU number ± S.D. [2, 12]: 130 ± 29 CFU
mean CFU number ± S.D. [2, 13]: 1,256 ± 129 CFU
mean CFU number ± S.D. [2, 14]: 36 ± 15 CFU
mean CFU number ± S.D. [2, 15]: 50 ± 29 CFU
CFU decrease/increase with respect to untreated controls ([2]; peptide alone 0.032 mg/mL, 3 h): +51%
mean CFU number ± S.D. ([2]; peptide alone 0.032 mg/mL, 3 h): 211 ± 25 CFU
CFU decrease/increase with respect to untreated controls [2, 16]: -5%
mean CFU number ± S.D. [2, 16]: 1,563 ± 72 CFU
CFU decrease/increase with respect to untreated controls ([2]; peptide alone 0.064 mg/mL, 3 h): +20%
mean CFU number ± S.D. ([2]; peptide alone 0.064 mg/mL, 3 h): 168 ± 14 CFU
CFU decrease/increase with respect to untreated controls [2, 17]: -10%
mean CFU number ± S.D. [2, 17]: 1,480 ± 198 CFU
CFU decrease/increase with respect to untreated controls ([2]; peptide alone 0.128 mg/mL, 3 h): +5.7%
mean CFU number ± S.D. ([2]; peptide alone 0.128 mg/mL, 3 h): 148 ± 24 CFU
CFU decrease/increase with respect to untreated controls [2, 18]: +6%
mean CFU number ± S.D. [2, 18]: 1,732 ± 249 CFU
mean CFU number ± S.D. [3, 4]: 467 ± 19 CFU
CFU decrease/increase with respect to untreated controls [3, 5]: -2.9%
mean CFU number ± S.D. [3, 5]: 167 ± 37 CFU
mean CFU number ± S.D. [3, 6]: 378 ± 8 CFU
CFU decrease/increase with respect to untreated controls [3, 7]: -12.7%
mean CFU number ± S.D. [3, 7]: 150 ± 4 CFU
mean CFU number ± S.D. [3, 8]: 371 ± 54 CFU
CFU decrease/increase with respect to untreated controls [3, 9]: -2.9%
mean CFU number ± S.D. [3, 9]: 167 ± 12 CFU
mean CFU number ± S.D. [3, 10]: 248 ± 88 CFU
CFU decrease/increase with respect to untreated controls [3, 11]: -15.1%
mean CFU number ± S.D. [3, 11]: 146 ± 6 CFU
mean CFU number ± S.D. [3, 12]: 190 ± 15 CFU
CFU decrease/increase with respect to untreated controls [3, 13]: -21%
mean CFU number ± S.D. [3, 13]: 136 ± 25 CFU
mean CFU number ± S.D. [3, 14]: 44 ± 4 CFU
CFU decrease/increase with respect to untreated controls [3, 15]: -8.1%
mean CFU number ± S.D. [3, 15]: 158 ± 18 CFU
CFU decrease/increase with respect to untreated controls ([3]; peptide alone 0.032 mg/mL, 3 h): -1%
mean CFU number ± S.D. ([3]; peptide alone 0.032 mg/mL, 3 h): 1,037 ± 161 CFU
CFU decrease/increase with respect to untreated controls [3, 16]: +9%
mean CFU number ± S.D. [3, 16]: 187 ± 11 CFU
CFU decrease/increase with respect to untreated controls ([3]; peptide alone 0.064 mg/mL, 3 h): -2%
mean CFU number ± S.D. ([3]; peptide alone 0.064 mg/mL, 3 h): 1031 ± 83 CFU
CFU decrease/increase with respect to untreated controls [3, 17]: +8%
mean CFU number ± S.D. [3, 17]: 186 ± 14 CFU
CFU decrease/increase with respect to untreated controls ([3]; peptide alone 0.128 mg/mL, 3 h): -19%
mean CFU number ± S.D. ([3]; peptide alone 0.128 mg/mL, 3 h): 845 ± 55 CFU
CFU decrease/increase with respect to untreated controls [3, 18]: -3%
mean CFU number ± S.D. [3, 18]: 166 ± 20 CFU
